How the values were obtained:
Assay type in all cases: in vivo
[1] = tested on: redroot pigweed (Amaranthus retroflexus, AMARE); experiment: Pre-emerge test, greenhouse herbicide activity screening; conditions: pre-emerge, 14 days after application, rating scale 0-100
Procedure, shortened: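 Visual ratings on a 0-100 scale (0 no damage, 100 all plants dead) were taken at 14 days after treatment. Rates of 15-1000 g ai/ha in acetone, 187 l/ha, were sprayed onto soil one day after planting (pre-emerge) or onto 2-3 leaf plants with 0.25% v/v surfactant (post-emerge).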

[2] = tested on: barnyardgrass (Echinochloa crus-galli, ECHCG); experiment: as above; conditions: pre-emerge, 14 days after application, rating scale 0-100
Procedure, shortened: (§1)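 Compounds in acetone were track-sprayed at 15-1000 g ai/ha (187 l/ha) on sandy loam pots: pre-emerge one day after seeding, post-emerge at 2-3 leaf stage with 0.25% v/v non-ionic surfactant. Phytotoxicity was rated 14 days later on a 0 (no damage) to 100 (complete death) scale.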

[3] = tested on: green foxtail (Setaria viridis, SETVI); experiment: as above; conditions: pre-emerge, 14 days after application, rating scale 0-100
Procedure, shortened: as §1

[4] = tested on: ivyleaf morningglory (Ipomoea hederacea, IPOHE); experiment: as above; conditions: pre-emerge, 14 days after application, rating scale 0-100
Procedure, shortened: as §1

[5] = tested on: johnsongrass (Sorghum halepense, SORHA); experiment: as above; conditions: pre-emerge, 14 days after application, rating scale 0-100
Procedure, shortened: as §1

[6] = tested on: lambsquarters (Chenopodium album, CHEAL); experiment: as above; conditions: pre-emerge, 14 days after application, rating scale 0-100
Procedure, shortened: as §1

[7] = tested on: large crabgrass (Digitaria sanguinalis, DIGSA); experiment: as above; conditions: pre-emerge, 14 days after application, rating scale 0-100
Procedure, shortened: as §1

[8] = tested on: sicklepod (Cassia obtusifolia, CASOB); experiment: as above; conditions: pre-emerge, 14 days after application, rating scale 0-100
Procedure, shortened: as §1

[9] = tested on: velvetleaf (Abutilon theophrasti, ABUTH); experiment: as above; conditions: pre-emerge, 14 days after application, rating scale 0-100
Procedure, shortened: as §1

[10] = tested on: field corn (Zea mays L., var. Dekalb 535, CORN); experiment: Pre-emerge test, crop safety; conditions: pre-emerge, 14 days after application, rating scale 0-100
Procedure, shortened: (§2)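 Fourteen days after spraying, crop and weed injury was graded visually from 0, no effect, to 100, every plant dead. Test substances were dissolved in acetone and applied at 15–1000 g ai/ha with a flat-fan nozzle. Application was either pre-emergence, one day after sowing, or post-emergence at the 2–3 leaf stage.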

[11] = tested on: upland rice (Oryza sp., var. Tebonnet, RICE); experiment: Pre-emerge test, crop safety; conditions: pre-emerge, 14 days after application, rating scale 0-100
Procedure, shortened: as §2

[12] = tested on: barnyardgrass (Echinochloa crus-galli, ECHCG); experiment: Post-emerge test, greenhouse herbicide activity screening; conditions: post-emerge, 14 days after application, rating scale 0-100
Procedure, shortened: (§3)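 Compounds in acetone were track-sprayed at 187 l/ha, 15–1000 g ai/ha, onto sandy loam pots. Pre-emerge seeds were sown one day before spraying, with surface watering afterwards. Post-emerge plants were at the 2–3 leaf stage and sprayed with 0.25% v/v non-ionic surfactant. Injury was rated 0–100 at 14 days.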

[13] = tested on: green foxtail (Setaria viridis, SETVI); experiment: as above; conditions: post-emerge, 14 days after application, rating scale 0-100
Procedure, shortened: as §3

[14] = tested on: ivyleaf morningglory (Ipomoea hederacea, IPOHE); experiment: as above; conditions: post-emerge, 14 days after application, rating scale 0-100
Procedure, shortened: as §3

[15] = tested on: johnsongrass (Sorghum halepense, SORHA); experiment: as above; conditions: post-emerge, 14 days after application, rating scale 0-100
Procedure, shortened: as §3

[16] = tested on: lambsquarters (Chenopodium album, CHEAL); experiment: as above; conditions: post-emerge, 14 days after application, rating scale 0-100
Procedure, shortened: as §3

[17] = tested on: large crabgrass (Digitaria sanguinalis, DIGSA); experiment: as above; conditions: post-emerge, 14 days after application, rating scale 0-100
Procedure, shortened: as §3

[18] = tested on: redroot pigweed (Amaranthus retroflexus, AMARE); experiment: as above; conditions: post-emerge, 14 days after application
Procedure, shortened: as §3

[19] = tested on: sicklepod (Cassia obtusifolia, CASOB); experiment: as above; conditions: post-emerge, 14 days after application, rating scale 0-100
Procedure, shortened: as §3

[20] = tested on: velvetleaf (Abutilon theophrasti, ABUTH); experiment: as above; conditions: post-emerge, 14 days after application, rating scale 0-100
Procedure, shortened: as §3

[21] = tested on: field corn (Zea mays L., var. Dekalb 535, CORN); experiment: Post-emerge test, crop safety; conditions: post-emerge, 14 days after application, rating scale 0-100
Procedure, shortened: as §1

[22] = tested on: upland rice (Oryza sp., var. Tebonnet, RICE); experiment: Post-emerge test, crop safety; conditions: post-emerge, 14 days after application, rating scale 0-100
Procedure, shortened: as §1

[23] = 63 g ai/ha, rating scale 0-100 (0 no damage, 100 complete death)
[24] = 250 g ai/ha, rating scale 0-100

CCOC(=O)CC(C)=NNc1c(OC)c(Cl)cc(F)c1-n1c(=O)cc(C(F)(F)F)n(C)c1=O [15-16]
phytotoxicity rating AMARE ([1]; 63 g ai/ha): 100
phytotoxicity rating AMARE ([1]; 250 g ai/ha): 100
phytotoxicity rating ECHCG ([2]; 63 g ai/ha): 80
phytotoxicity rating ECHCG ([2]; 250 g ai/ha): 100
phytotoxicity rating SETVI ([3]; 63 g ai/ha): 100
phytotoxicity rating SETVI ([3]; 250 g ai/ha): 100
phytotoxicity rating IPOHE ([4]; 63 g ai/ha): 90
phytotoxicity rating IPOHE ([4]; 250 g ai/ha): 100
phytotoxicity rating SORHA ([5]; 63 g ai/ha): 100
phytotoxicity rating SORHA ([5]; 250 g ai/ha): 100
phytotoxicity rating CHEAL ([6]; 63 g ai/ha): 100
phytotoxicity rating CHEAL ([6]; 250 g ai/ha): 100
phytotoxicity rating DIGSA ([7]; 63 g ai/ha): 100
phytotoxicity rating DIGSA ([7]; 250 g ai/ha): 100
phytotoxicity rating CASOB ([8]; 63 g ai/ha): 90
phytotoxicity rating CASOB ([8]; 250 g ai/ha): 100
phytotoxicity rating ABUTH ([9]; 63 g ai/ha): 100
phytotoxicity rating ABUTH ([9]; 250 g ai/ha): 100
phytotoxicity rating CORN ([10]; 63 g ai/ha): 65
phytotoxicity rating CORN ([10]; 250 g ai/ha): 100
phytotoxicity rating RICE ([11]; 63 g ai/ha): 90
phytotoxicity rating RICE ([11]; 250 g ai/ha): 100
Post-emerge Herbicidal Activity ECHCG (phytotoxicity rating) ([12]; 63 g ai/ha): 10
Post-emerge Herbicidal Activity ECHCG (phytotoxicity rating) ([12]; 250 g ai/ha): 90
Post-emerge Herbicidal Activity SETVI (phytotoxicity rating) ([13]; 63 g ai/ha): 30
Post-emerge Herbicidal Activity SETVI (phytotoxicity rating) ([13]; 250 g ai/ha): 60
Post-emerge Herbicidal Activity IPOHE (phytotoxicity rating) ([14]; 63 g ai/ha): 100
Post-emerge Herbicidal Activity IPOHE (phytotoxicity rating) ([14]; 250 g ai/ha): 100
Post-emerge Herbicidal Activity SORHA (phytotoxicity rating) ([15]; 63 g ai/ha): 10
Post-emerge Herbicidal Activity SORHA (phytotoxicity rating) ([15]; 250 g ai/ha): 70
Post-emerge Herbicidal Activity CHEAL (phytotoxicity rating) ([16]; 63 g ai/ha): 100
Post-emerge Herbicidal Activity CHEAL (phytotoxicity rating) ([16]; 250 g ai/ha): 100
Post-emerge Herbicidal Activity DIGSA (phytotoxicity rating) ([17]; 63 g ai/ha): 20
Post-emerge Herbicidal Activity DIGSA (phytotoxicity rating) ([17]; 250 g ai/ha): 80
Post-emerge Herbicidal Activity AMARE (phytotoxicity rating) [18, 23]: 80
Post-emerge Herbicidal Activity AMARE (phytotoxicity rating) [18, 24]: 100
Post-emerge Herbicidal Activity CASOB (phytotoxicity rating) ([19]; 63 g ai/ha): 80
Post-emerge Herbicidal Activity CASOB (phytotoxicity rating) ([19]; 250 g ai/ha): 100
Post-emerge Herbicidal Activity ABUTH (phytotoxicity rating) ([20]; 63 g ai/ha): 100
Post-emerge Herbicidal Activity ABUTH (phytotoxicity rating) ([20]; 250 g ai/ha): 100
Post-emerge Herbicidal Activity CORN (crop damage rating) ([21]; 63 g ai/ha): 15
Post-emerge Herbicidal Activity CORN (crop damage rating) ([21]; 250 g ai/ha): 45
Post-emerge Herbicidal Activity RICE (crop damage rating) ([22]; 63 g ai/ha): 40
Post-emerge Herbicidal Activity RICE (crop damage rating) ([22]; 250 g ai/ha): 80

COc1c(Cl)cc(F)c(-n2c(=O)cc(C(F)(F)F)n(C)c2=O)c1NN=C1CCc2ccccc2C1 [15-18]
phytotoxicity rating AMARE ([1]; 63 g ai/ha): 100
phytotoxicity rating AMARE ([1]; 250 g ai/ha): 100
phytotoxicity rating ECHCG ([2]; 63 g ai/ha): 75
phytotoxicity rating ECHCG ([2]; 250 g ai/ha): 100
phytotoxicity rating SETVI ([3]; 63 g ai/ha): 95
phytotoxicity rating SETVI ([3]; 250 g ai/ha): 100
phytotoxicity rating IPOHE ([4]; 63 g ai/ha): 90
phytotoxicity rating IPOHE ([4]; 250 g ai/ha): 100
phytotoxicity rating SORHA ([5]; 63 g ai/ha): 75
phytotoxicity rating SORHA ([5]; 250 g ai/ha): 100
phytotoxicity rating CHEAL ([6]; 63 g ai/ha): 100
phytotoxicity rating CHEAL ([6]; 250 g ai/ha): 100
phytotoxicity rating DIGSA ([7]; 63 g ai/ha): 100
phytotoxicity rating DIGSA ([7]; 250 g ai/ha): 100
phytotoxicity rating CASOB ([8]; 63 g ai/ha): 100
phytotoxicity rating CASOB ([8]; 250 g ai/ha): 100
phytotoxicity rating ABUTH ([9]; 63 g ai/ha): 100
phytotoxicity rating ABUTH ([9]; 250 g ai/ha): 100
phytotoxicity rating CORN ([10]; 63 g ai/ha): 80
phytotoxicity rating CORN ([10]; 250 g ai/ha): 95
phytotoxicity rating RICE ([11]; 63 g ai/ha): 90
phytotoxicity rating RICE ([11]; 250 g ai/ha): 99
Post-emerge Herbicidal Activity ECHCG (phytotoxicity rating) ([12]; 63 g ai/ha): 10
Post-emerge Herbicidal Activity ECHCG (phytotoxicity rating) ([12]; 250 g ai/ha): 95
Post-emerge Herbicidal Activity SETVI (phytotoxicity rating) ([13]; 63 g ai/ha): 20
Post-emerge Herbicidal Activity SETVI (phytotoxicity rating) ([13]; 250 g ai/ha): 80
Post-emerge Herbicidal Activity IPOHE (phytotoxicity rating) ([14]; 63 g ai/ha): 90
Post-emerge Herbicidal Activity IPOHE (phytotoxicity rating) ([14]; 250 g ai/ha): 100
Post-emerge Herbicidal Activity SORHA (phytotoxicity rating) ([15]; 63 g ai/ha): 0
Post-emerge Herbicidal Activity SORHA (phytotoxicity rating) ([15]; 250 g ai/ha): 99
Post-emerge Herbicidal Activity CHEAL (phytotoxicity rating) ([16]; 63 g ai/ha): 100
Post-emerge Herbicidal Activity CHEAL (phytotoxicity rating) ([16]; 250 g ai/ha): 100
Post-emerge Herbicidal Activity DIGSA (phytotoxicity rating) ([17]; 63 g ai/ha): 10
Post-emerge Herbicidal Activity DIGSA (phytotoxicity rating) ([17]; 250 g ai/ha): 100
Post-emerge Herbicidal Activity AMARE (phytotoxicity rating) [18, 23]: 100
Post-emerge Herbicidal Activity AMARE (phytotoxicity rating) [18, 24]: 100
Post-emerge Herbicidal Activity CASOB (phytotoxicity rating) ([19]; 63 g ai/ha): 40
Post-emerge Herbicidal Activity CASOB (phytotoxicity rating) ([19]; 250 g ai/ha): 100
Post-emerge Herbicidal Activity ABUTH (phytotoxicity rating) ([20]; 63 g ai/ha): 100
Post-emerge Herbicidal Activity ABUTH (phytotoxicity rating) ([20]; 250 g ai/ha): 100
Post-emerge Herbicidal Activity CORN (crop damage rating) ([21]; 63 g ai/ha): 20
Post-emerge Herbicidal Activity CORN (crop damage rating) ([21]; 250 g ai/ha): 80
Post-emerge Herbicidal Activity RICE (crop damage rating) ([22]; 63 g ai/ha): 30
Post-emerge Herbicidal Activity RICE (crop damage rating) ([22]; 250 g ai/ha): 85

Reference: patent publication US6355799B1, “Substituted benzene compounds, process for their preparation, and herbicidal and defoliant compositions containing them” (ISK Americas Incorporated, priority 1997, dated 2002)
